Measured values published in patent US10316211B2, “Stabilizer and coating compositions thereof” (SWIMC LLC, priority 2012, dated 2019).

Each molecule was assayed against T1, human estrogen receptor (Homo sapiens, UniProt P03372) (assay: suitable in vitro assay whose results correlate with the MCF-7 assay (estrogenic activity)). Conditions: in vitro assay correlated to MCF-7 assay through common reference compounds.
T1 sequence (P03372 1-595): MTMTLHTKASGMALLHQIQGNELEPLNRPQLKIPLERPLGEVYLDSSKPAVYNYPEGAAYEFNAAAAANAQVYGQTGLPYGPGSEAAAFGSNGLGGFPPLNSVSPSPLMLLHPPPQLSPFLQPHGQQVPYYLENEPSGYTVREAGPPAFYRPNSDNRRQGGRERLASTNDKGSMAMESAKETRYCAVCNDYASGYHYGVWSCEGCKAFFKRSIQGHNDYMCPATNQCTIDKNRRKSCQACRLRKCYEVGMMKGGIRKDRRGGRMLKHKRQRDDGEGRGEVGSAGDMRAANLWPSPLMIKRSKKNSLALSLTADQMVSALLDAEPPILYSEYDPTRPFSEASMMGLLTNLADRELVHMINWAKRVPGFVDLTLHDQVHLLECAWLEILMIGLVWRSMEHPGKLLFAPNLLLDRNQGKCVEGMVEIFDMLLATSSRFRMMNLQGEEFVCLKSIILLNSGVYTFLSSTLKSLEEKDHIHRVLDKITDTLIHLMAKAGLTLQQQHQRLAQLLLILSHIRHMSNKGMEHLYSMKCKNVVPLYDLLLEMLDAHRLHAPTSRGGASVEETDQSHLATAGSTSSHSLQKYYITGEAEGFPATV
`Cc1cc(Cc2cc(C)c(O)c(C)c2)cc(C)c1O` [Structure 6, 4,4′-methylenebis(2,6-dimethylphenol)] was tested, and the estrogenic activity was “do not exhibit appreciable estrogenic activity”.
With `CCCC(c1cc(C(C)(C)C)c(O)cc1C)c1cc(C(C)(C)C)c(O)cc1C` [Structure 7, 4,4′-butylidenebis(2-t-butyl-5-methylphenol)] the estrogenic activity was “do not exhibit appreciable estrogenic activity”.
With `CC(C)(C)c1cc(Cc2cc(C(C)(C)C)c(O)c(C(C)(C)C)c2)cc(C(C)(C)C)c1O` [Structure 8, 4,4′-methylenebis(2,6-di-t-butylphenol)] the estrogenic activity was “do not exhibit appreciable estrogenic activity”.
With `Cc1cc(Cc2cc(C)cc(C(C)(C)C)c2O)c(O)c(C(C)(C)C)c1` [Structure 9] the estrogenic activity was “do not exhibit appreciable estrogenic activity”.
For `CC(C)(C)c1cc(O)c(C(C)(C)C)cc1O` [Structure 12, 2,5-di-t-butylhydroquinone], the estrogenic activity was “do not exhibit appreciable estrogenic activity”.

These molecules were tested on MCF-7, clone WS8 cells (assay: MCF-7 cell proliferation assay of estrogenic activity). Conditions: log10 of Relative Proliferative Effect (EC50 ratio versus 17-beta estradiol times 100); b102 calls the values expected or measured.
Type: cell-based, human
From the text: The MCF-7 assay is a useful test for assessing whether a polyhydric phenol compound is appreciably non-estrogenic. The MCF-7 assay uses MCF-7, clone WS8 cells to measure whether and to what extent a substance induces cell proliferation via estrogen receptor (ER)-mediated pathways. The method is described in “Test Method Nomination: MCF-7 Cell Proliferation Assay of Estrogenic Activity” submitted for validation by CertiChem, Inc. to the National Toxicology Program Interagency Center for the Evaluation of Alternative Toxicological Methods (NICEATM) on Jan. 19, 2006 (available online at iccvam.niehs.nih.gov/methods/endocrine/endodocs/SubmDoc.pdf).
A brief summary of the method of the aforementioned MCF-7 assay is provided below. MCF-7, clone WS8 cells are maintained at 37° C. in RMPI (Roswell Park Memorial Institute medium) containing Phenol Red (e.g., GIBCO Catalog Number 11875119) and supplemented with the indicated additives for routine culture. An aliquot of cells maintained at 37° C. are grown for two days in phenol-free media containing 5% charcoal stripped fetal bovine serum in a 25 cm^2 tissue culture flask. Using a robotic dispenser such as an EPMOTION™ 5070 unit, MCF-7 cells are then seeded at 400 cells per well in 0.2 ml of hormone-free culture medium in Corning 96-well plates. The cells are adapted for 3 days in the hormone-free culture medium prior to adding the chemical to be assayed for estrogenic activity. The media containing the test chemical is replaced daily for 6 days. At the end of the 7 day exposure to the test chemical, the media is removed, the wells are washed once with 0.2 ml of HBSS (Hanks' Balanced Salt Solution), and then assayed to quantify amounts of DNA per well using a micro-plate modification of the Burton diphenylamine (DPA) assay, which is used to calculate the level of cell proliferation.
RPE is the ratio between the EC50 of the test chemical and the EC50 of the control substance 17-beta estradiol times 100, where EC50 is “effective concentration 50%” or half-maximum stimulation concentration for cell proliferation measured as total DNA in the MCF-7 assay.
With `C[C@]12CC[C@@H]3c4ccc(O)cc4CC[C@H]3[C@@H]1CC[C@@H]2O` [17β-estradiol] the “Log RPE” value was 2.00.
In the case of `Oc1ccc(Cc2ccc(O)cc2)cc1` [Bisphenol F], the “Log RPE” value is reported as −2.
With `O=S(=O)(c1ccc(O)cc1)c1ccc(O)cc1` [Bisphenol S] the “Log RPE” value was −2.
With `Oc1ccccc1Cc1ccccc1O` [Structure 11] the “Log RPE” value was “less than −4”.
With `CC(C)(C)c1cc(O)c(C(C)(C)C)cc1O` [Structure 12] the “Log RPE” value was “less than −4”.
